Assay results taken from US11420947B2, “(S)-n-hydroxy-2-(2-(4-methoxyphenyl)butanamido)thiazole-5-carboxamide and pharmaceutically acceptable salts thereof” (TRANSLATIONAL DRUG DEVELOPMENT, LLC, priority 2018, dated 2022).

Tests used:
Assay type in all cases: biochemical
[1] = biological target: T1, HDAC1 (Homo sapiens, UniProt Q13547); assay: Inhibition of HDAC enzymes, 12-point concentration-response
T1 construct: purchased BPS 50051
Description: (§1) Compounds were tested in a 12-point concentration-response format against 11 HDAC enzymes as outlined in Table 2A. Test compounds were diluted in 100% DMSO using 3-fold dilution steps. The final compound concentration in the assay ranged from 100 μM to 0.565 nM or as requested. Compounds were tested in a single well for each dilution, and the final concentration of DMSO in all assays was kept at 1%. Reference compounds were tested in an identical manner.

[2] = biological target: T2, HDAC10 (Homo sapiens, UniProt Q969S8); assay: as above; details: for IC50: HDAC10
T2 construct: made in house
T2 sequence (Q969S8 1-669): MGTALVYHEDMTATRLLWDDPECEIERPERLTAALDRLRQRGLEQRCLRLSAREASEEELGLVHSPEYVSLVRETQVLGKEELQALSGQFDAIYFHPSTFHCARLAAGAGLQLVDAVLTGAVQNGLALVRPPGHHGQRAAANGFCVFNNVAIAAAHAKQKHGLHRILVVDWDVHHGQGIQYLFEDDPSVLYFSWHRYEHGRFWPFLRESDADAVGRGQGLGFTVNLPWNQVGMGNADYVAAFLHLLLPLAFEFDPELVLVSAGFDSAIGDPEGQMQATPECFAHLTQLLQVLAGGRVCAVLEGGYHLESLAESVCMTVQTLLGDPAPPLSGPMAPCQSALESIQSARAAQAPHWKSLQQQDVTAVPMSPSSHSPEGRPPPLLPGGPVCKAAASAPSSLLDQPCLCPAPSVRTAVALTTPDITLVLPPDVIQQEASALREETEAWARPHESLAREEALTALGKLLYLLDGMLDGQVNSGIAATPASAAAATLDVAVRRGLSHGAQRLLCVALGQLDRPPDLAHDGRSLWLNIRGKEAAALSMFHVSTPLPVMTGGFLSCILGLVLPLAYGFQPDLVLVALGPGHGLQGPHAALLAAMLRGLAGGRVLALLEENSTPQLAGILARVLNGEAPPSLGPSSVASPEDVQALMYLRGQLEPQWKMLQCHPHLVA
Description: as §1

[3] = biological target: T3, HDAC11 (Homo sapiens, UniProt Q96DB2); assay: as above
T3 construct: made in house
Description: as §1

[4] = biological target: T4, HDAC3 (Homo sapiens, UniProt O15379); assay: as above; details: for IC50: HDAC3
T4 construct: purchased BPS 50003
Description: as §1

[5] = biological target: T5, HDAC4 (Homo sapiens, UniProt P56524); assay: as above
T5 construct: made in house
Description: as §1

[6] = biological target: T6, HDAC7 (Homo sapiens, UniProt Q8WUI4); assay: as above
T6 construct: made in house
Description: as §1

[7] = biological target: T7, HDAC8 (Homo sapiens, UniProt Q9BY41); assay: as above
T7 construct: purchased BPS 50008
Description: as §1

[8] = biological target: T8, HDAC9 (Homo sapiens, UniProt Q9UKV0); assay: as above
T8 construct: purchased BPS 50009
Description: as §1

[9] = biological target: T9, HDAC6 (Homo sapiens, UniProt Q9UBN7); assay: Determination of Koff kinetics against HDAC6 protein; details: for residence time: 100 nM HDAC6 pre-incubated with 0.120 μM compound for 3 hr, diluted 200×, Ln(2)/Kobs, read-out: residence time for binding to HDAC6
T9 sequence (Q9UBN7 1-1215): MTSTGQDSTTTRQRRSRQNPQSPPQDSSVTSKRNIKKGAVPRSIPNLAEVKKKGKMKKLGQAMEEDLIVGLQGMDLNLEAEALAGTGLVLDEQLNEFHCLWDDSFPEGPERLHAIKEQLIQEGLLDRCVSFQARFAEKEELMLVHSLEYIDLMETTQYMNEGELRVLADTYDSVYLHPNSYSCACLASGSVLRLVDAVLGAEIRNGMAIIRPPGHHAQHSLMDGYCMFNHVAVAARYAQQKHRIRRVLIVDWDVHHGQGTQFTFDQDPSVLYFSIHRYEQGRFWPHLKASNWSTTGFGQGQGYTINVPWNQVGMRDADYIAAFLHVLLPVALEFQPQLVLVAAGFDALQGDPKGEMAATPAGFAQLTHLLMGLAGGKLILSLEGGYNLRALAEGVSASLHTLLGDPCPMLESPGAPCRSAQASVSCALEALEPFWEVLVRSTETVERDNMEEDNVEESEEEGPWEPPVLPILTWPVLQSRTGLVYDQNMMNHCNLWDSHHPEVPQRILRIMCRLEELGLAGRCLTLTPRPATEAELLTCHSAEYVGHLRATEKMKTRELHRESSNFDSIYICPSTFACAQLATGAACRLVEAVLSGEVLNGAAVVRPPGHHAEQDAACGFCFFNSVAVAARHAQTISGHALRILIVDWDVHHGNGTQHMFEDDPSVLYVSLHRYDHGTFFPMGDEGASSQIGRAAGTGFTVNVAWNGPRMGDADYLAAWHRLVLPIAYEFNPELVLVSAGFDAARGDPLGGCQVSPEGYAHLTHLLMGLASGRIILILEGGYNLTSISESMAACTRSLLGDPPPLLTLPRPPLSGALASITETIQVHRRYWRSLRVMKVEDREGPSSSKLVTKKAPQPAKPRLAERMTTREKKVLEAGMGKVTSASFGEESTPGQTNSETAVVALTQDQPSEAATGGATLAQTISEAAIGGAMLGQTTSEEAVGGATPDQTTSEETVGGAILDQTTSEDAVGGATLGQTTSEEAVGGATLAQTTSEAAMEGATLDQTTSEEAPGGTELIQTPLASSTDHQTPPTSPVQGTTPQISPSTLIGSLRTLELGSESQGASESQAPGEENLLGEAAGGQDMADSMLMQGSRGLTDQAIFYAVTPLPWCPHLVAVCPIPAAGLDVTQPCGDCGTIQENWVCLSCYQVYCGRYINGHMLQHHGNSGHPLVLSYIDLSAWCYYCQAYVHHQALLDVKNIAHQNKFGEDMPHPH
Description: The disassociation rate for #1a (FIG. 3) or #1b (FIG. 4) was determined by pre-incubating 100 nM HDAC6 protein with 0.120 μM compound #1a, #1b, or DMSO for 3 hr. After pre-incubation, the compound-enzyme complex was diluted (200×) into an assay buffer with substrate peptide. Progress curves for ˜8 hrs were observed using Labchip3000 instrument. Progress curve after pre-incubation with compound (blue) was fit with following equation: ((A+(Vs*x))+(((Vo−Vs)*(1−exp(((−1)*Kobs)*t)))/Kobs)), to determine observed rate of dissociation. Residence time was determined as Ln(2)/Kobs.

[10] = biological target: T9, HDAC6; assay: Inhibition of HDAC enzymes, 12-point concentration-response; parameters: made in house; details: for IC50: HDAC6
Description: as §1

T4 sequence (O15379 whole entry): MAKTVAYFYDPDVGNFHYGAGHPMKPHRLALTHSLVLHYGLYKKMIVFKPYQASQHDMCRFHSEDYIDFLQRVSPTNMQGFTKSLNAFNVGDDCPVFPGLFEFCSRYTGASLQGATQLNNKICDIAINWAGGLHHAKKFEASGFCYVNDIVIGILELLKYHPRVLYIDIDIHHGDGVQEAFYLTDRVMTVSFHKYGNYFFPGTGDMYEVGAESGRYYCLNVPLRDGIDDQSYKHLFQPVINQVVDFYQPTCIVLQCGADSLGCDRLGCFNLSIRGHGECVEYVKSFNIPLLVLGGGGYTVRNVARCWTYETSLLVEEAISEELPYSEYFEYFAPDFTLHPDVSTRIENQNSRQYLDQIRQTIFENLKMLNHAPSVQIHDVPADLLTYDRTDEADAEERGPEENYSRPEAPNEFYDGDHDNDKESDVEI
T4 sequence (Q9Y618 395-489 partner limits assumed): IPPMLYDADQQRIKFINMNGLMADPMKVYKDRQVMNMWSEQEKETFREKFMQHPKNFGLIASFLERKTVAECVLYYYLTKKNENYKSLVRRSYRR
T7 sequence (Q9BY41 whole entry): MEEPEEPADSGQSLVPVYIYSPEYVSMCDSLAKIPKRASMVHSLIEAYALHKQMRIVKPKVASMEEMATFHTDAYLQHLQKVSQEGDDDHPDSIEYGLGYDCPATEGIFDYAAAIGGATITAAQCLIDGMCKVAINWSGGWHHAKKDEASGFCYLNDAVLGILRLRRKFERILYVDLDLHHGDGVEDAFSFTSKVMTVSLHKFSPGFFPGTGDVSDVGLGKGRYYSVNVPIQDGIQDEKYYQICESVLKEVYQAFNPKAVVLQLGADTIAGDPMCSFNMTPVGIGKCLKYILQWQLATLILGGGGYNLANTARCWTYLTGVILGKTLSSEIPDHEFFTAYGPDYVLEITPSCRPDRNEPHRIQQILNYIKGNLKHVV
T1 sequence (Q13547 whole entry): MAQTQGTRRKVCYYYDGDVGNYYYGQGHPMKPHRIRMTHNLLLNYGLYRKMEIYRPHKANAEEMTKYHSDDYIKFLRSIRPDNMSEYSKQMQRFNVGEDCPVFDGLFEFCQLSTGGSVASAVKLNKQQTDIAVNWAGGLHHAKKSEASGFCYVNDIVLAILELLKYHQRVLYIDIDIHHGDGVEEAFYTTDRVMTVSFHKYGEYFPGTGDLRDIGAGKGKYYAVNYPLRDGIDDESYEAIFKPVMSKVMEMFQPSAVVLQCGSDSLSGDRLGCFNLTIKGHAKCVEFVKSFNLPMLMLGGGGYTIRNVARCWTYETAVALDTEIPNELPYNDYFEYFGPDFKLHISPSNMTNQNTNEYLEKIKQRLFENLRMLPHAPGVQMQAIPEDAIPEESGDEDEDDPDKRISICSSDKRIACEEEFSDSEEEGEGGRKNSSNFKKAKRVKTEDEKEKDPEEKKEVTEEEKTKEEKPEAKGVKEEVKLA
T3 sequence (Q96DB2 whole entry, species assumed): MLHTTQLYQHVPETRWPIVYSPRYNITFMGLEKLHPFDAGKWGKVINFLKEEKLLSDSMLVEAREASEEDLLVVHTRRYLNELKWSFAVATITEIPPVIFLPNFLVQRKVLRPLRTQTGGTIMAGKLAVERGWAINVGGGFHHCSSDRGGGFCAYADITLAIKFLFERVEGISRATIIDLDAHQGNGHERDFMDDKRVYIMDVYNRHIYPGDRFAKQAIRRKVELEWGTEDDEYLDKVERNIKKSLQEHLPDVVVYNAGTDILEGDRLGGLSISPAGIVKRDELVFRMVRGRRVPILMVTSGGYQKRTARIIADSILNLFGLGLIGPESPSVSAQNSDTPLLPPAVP
T6 sequence (Q8WUI4 whole entry): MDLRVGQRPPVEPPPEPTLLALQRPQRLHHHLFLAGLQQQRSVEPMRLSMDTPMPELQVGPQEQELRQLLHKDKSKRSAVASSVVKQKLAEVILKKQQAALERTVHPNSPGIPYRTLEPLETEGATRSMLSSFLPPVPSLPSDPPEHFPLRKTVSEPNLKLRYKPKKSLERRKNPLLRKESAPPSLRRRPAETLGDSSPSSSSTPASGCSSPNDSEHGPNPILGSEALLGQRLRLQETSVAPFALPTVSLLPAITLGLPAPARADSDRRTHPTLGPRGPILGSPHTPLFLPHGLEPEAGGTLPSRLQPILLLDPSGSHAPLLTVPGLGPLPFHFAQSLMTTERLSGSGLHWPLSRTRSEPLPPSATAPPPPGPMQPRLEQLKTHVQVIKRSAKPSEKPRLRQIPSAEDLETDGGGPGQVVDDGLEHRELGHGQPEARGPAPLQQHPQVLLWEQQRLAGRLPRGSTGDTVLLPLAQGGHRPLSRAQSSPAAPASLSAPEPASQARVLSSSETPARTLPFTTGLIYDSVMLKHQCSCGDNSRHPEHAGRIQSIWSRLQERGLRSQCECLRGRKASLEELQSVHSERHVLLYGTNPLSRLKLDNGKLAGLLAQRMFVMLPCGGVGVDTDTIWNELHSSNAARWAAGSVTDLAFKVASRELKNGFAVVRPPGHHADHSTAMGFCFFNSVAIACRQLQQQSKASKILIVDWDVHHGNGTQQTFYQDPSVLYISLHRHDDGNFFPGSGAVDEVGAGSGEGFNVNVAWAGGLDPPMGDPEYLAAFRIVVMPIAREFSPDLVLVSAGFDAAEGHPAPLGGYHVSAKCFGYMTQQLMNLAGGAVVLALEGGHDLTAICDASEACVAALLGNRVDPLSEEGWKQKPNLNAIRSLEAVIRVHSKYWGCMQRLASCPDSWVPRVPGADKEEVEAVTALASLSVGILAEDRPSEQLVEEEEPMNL
T5 sequence (P56524 whole entry, species assumed): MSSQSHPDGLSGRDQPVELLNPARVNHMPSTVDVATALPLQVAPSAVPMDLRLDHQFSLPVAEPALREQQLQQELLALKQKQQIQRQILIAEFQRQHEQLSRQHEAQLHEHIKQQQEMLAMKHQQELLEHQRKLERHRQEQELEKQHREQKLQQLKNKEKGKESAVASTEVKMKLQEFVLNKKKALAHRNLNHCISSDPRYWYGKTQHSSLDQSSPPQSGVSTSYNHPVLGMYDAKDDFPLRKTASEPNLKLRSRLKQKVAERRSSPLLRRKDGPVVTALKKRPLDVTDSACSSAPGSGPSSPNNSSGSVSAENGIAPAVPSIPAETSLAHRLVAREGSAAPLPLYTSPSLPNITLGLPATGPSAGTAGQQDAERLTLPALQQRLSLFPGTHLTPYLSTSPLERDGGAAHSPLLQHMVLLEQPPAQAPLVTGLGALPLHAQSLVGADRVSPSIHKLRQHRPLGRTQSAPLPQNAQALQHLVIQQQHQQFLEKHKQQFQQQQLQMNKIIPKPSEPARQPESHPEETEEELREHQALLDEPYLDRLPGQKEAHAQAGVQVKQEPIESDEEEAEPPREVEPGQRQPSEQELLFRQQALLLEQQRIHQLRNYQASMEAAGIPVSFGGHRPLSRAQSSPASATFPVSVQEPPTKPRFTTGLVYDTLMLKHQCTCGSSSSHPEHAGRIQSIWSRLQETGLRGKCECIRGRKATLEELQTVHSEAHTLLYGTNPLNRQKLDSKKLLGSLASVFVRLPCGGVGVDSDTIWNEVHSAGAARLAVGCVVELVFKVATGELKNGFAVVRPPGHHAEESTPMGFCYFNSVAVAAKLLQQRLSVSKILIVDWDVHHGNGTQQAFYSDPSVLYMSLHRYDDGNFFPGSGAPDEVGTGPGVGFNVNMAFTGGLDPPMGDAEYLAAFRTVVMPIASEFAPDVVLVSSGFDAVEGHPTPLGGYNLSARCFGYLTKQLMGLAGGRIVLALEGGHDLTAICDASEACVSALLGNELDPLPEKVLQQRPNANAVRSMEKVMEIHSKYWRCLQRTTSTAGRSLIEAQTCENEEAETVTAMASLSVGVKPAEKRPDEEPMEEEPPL
T8 sequence (Q9UKV0 1-1066 isoform Q9UKV0-5): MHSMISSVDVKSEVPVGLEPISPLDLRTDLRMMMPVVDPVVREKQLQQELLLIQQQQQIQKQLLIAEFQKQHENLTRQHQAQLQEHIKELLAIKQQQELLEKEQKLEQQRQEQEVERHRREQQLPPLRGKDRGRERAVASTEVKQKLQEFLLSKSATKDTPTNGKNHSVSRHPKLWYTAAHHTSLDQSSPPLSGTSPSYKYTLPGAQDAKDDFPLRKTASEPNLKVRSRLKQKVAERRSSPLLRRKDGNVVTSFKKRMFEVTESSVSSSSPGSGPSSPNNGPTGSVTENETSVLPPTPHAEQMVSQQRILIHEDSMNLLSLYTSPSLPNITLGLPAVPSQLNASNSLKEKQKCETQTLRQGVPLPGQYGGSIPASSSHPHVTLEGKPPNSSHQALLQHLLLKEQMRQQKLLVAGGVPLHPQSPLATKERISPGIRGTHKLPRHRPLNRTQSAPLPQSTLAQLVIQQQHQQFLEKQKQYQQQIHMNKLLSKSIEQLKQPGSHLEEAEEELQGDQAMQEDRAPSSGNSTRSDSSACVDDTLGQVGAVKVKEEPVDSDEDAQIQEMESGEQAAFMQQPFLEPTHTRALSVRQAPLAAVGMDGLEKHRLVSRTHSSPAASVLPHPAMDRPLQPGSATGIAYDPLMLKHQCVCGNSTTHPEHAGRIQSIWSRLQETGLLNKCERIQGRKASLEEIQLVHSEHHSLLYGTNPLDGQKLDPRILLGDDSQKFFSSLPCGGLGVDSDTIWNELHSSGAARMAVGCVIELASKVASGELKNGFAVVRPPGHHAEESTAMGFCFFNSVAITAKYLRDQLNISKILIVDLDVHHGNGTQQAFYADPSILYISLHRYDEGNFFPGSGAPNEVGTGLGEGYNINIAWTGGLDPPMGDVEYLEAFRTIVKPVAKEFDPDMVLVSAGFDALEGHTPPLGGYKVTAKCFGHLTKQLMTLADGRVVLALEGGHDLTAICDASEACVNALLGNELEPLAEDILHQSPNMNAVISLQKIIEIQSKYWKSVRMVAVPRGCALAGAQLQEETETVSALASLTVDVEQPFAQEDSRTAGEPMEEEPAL

CC[C@H](C(=O)Nc1ncc(C(=O)NO)s1)c1ccc(OC)cc1 [#1a, (S)—N-hydroxy-2-(2-(4-methoxyphenyl)butanamido)thiazole-5-carboxamide]
Fold (1b/1a) ([1]; ratio of IC50, HDAC1): 7.8 | IC50 [2]: 2 nM | Fold (1b/1a) ([2]; ratio of IC50, HDAC10): 7.3 | Fold (1b/1a) ([3]; ratio of IC50, HDAC11): 0.73 | IC50 [4]: < 0.56 nM | Fold (1b/1a) ([4]; ratio of IC50, HDAC3): 4.6 | Fold (1b/1a) ([5]; ratio of IC50, HDAC4): 1.2 | Fold (1b/1a) ([6]; ratio of IC50, HDAC7): 3.4 | Fold (1b/1a) ([7]; ratio of IC50, HDAC8): 3.1 | Fold (1b/1a) ([8]; ratio of IC50, HDAC9): 1.1 | residence time [9]: 1920 min | binding to HDAC6 (in words) ([9]; HDAC6): very tightly bound inhibitor of HDAC6 | increase in residence time compared to #1b ([9]; HDAC6): 55 fold | IC50 [10]: 0.71 nM | Fold (1b/1a) ([10]; ratio of IC50, HDAC6): 1.5

CC[C@@H](C(=O)Nc1ncc(C(=O)NO)s1)c1ccc(OC)cc1 [#1b, (R)—N-hydroxy-2-(2-(4-methoxyphenyl)butanamido)thiazole-5-carboxamide]
IC50 ([1]; HDAC1): 7.8 nM | IC50 [2]: 14.6 nM | IC50 ([3]; HDAC11): 4220 nM | IC50 [4]: 2.6 nM | IC50 ([5]; HDAC4): 160 nM | IC50 ([6]; HDAC7): 118 nM | IC50 ([7]; HDAC8): 416 nM | IC50 ([8]; HDAC9): 210 nM | residence time [9]: 35 min | IC50 [10]: 1.1 nM
